Measurements reported in publication PMC3344845, “Structure of Bradavidin – C-Terminal Residues Act as Intrinsic Ligands” (PLoS ONE, 2012).

Assays:
Type in all cases: binding
wt bradavidin [1] = target: T1, wt bradavidin (Bradyrhizobium diazoefficiens, UniProt Q89IH6); test: isothermal titration calorimetry
T1 construct: gene blr5658; E. coli BL21-AI periplasm; homotetramer
T1 sequence (Q89IH6 26-163): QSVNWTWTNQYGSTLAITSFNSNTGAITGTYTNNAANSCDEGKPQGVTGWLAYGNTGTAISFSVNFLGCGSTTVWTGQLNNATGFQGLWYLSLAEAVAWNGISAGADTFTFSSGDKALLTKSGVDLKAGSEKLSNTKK
Source text: isothermal titration calorimetry on wt bradavidin

wt bradavidin [2] = target: T1, wt bradavidin; test: differential scanning calorimetry; settings: 50 mM sodium phosphate pH 7.0, 100 mM NaCl; 15 µM protein, ~3:1 biotin:subunit; 120 °C/hour
core-bradavidin [3] = target: T2, core-bradavidin (Bradyrhizobium diazoefficiens, UniProt Q89IH6); test: differential scanning calorimetry; settings: 50 mM sodium phosphate pH 7.0, 100 mM NaCl; 15 µM protein, ~3:1 biotin:subunit; 120 °C/hour
T2 construct: gene blr5658; C-terminally truncated core form, 118 residues (truncation between Leu118 and Leu119), lacks Brad-tag; E. coli BL21-AI periplasm; homotetramer

core-bradavidin [4] = target: T2, core-bradavidin; test: isothermal titration calorimetry
Source text: isothermal titration calorimetry on core-bradavidin

For `O=C(O)CCCC[C@@H]1SC[C@@H]2NC(=O)N[C@@H]21` [D-biotin], which Kd (wt bradavidin [1]) is on record?
Its Kd is 300 nM.

And the Tm with biotin (wt bradavidin [2])?
Its Tm with biotin is 101.7±0.1 °C.

What about the Tm with biotin (core-bradavidin [3]) of the same molecule?
The Tm with biotin was 97.9±0.2 °C.

What about the Kd (core-bradavidin [4]) of the same molecule?
Its Kd is < 1 nM.
